Source: ChEMBL document CHEMBL4616703, “Benzoxazepine-Derived Selective, Orally Bioavailable Inhibitor of Human Acidic Mammalian Chitinase” (ACS Med Chem Lett, 2020)
pIC50: −log10 of the molar value.

Target: Chitotriosidase-1 (Homo sapiens, UniProt Q13231)
Test: Inhibition of full length recombinant C-terminal His-taged human CHIT1 expressed in CHOK1 cells assessed as reduction in chitinolytic activity using 4-methylumbelliferyl-beta-D-N,N',N''-[…] as substrate incubated for 60 mins under shaking condition by microplate fluorometry analysis
Design: species or system CHO-K1

Sequence of Chitotriosidase-1 (Q13231 whole entry): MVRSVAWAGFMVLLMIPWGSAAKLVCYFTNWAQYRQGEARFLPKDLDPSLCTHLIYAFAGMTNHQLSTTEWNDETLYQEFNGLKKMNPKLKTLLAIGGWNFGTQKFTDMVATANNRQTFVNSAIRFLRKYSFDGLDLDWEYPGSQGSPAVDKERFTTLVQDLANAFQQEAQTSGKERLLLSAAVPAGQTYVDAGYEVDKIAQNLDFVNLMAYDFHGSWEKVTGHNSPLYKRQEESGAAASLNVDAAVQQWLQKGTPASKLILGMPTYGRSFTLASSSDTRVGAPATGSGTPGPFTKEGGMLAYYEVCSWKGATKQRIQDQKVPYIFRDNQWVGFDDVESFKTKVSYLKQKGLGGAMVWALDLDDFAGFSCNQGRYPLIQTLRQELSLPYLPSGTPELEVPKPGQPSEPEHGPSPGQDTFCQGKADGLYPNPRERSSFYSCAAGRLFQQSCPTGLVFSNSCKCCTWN

| SMILES | pIC50 |
| --- | --- |
| Nc1nnc(N2CCC(N3Cc4cc(F)ccc4OC[C@@H]3Cc3ccc(Cl)cc3)CC2)[nH]1 | 6.03 |
| N#Cc1ccc2c(c1)CN(C1CCN(c3n[nH]c(N)n3)CC1)[C@@H](Cc1ccc(Cl)cc1)CO2 | 5.14 |
| C=C1COC[C@H](Cc2ccc(Cl)cc2)N(C2CCN(c3nnc(N)[nH]3)CC2)C1 | 6.46 |
| Nc1nnc(N2CCC(N3Cc4ccncc4OC[C@@H]3Cc3ccc(Cl)cc3)CC2)[nH]1 | 5.36 |
| CN1C[C@H](Cc2ccc(Cl)cc2)N(C2CCN(c3nnc(N)[nH]3)CC2)Cc2cc(Cl)ccc21 | 6.38 |
| Nc1nc(N2CCC(N(Cc3ccccc3)[C@H](CO)Cc3ccc(Cl)cc3)CC2)n[nH]1 | 4.74 |

More lines, now with the values ahead:

| pIC50 | SMILES |
| --- | --- |
| < 4.70 | Nc1nnc(N2CCC(N3Cc4cc(Cl)cc(Cl)c4OC[C@@H]3Cc3ccc(Cl)cc3)CC2)[nH]1 |
| 6.91 | Nc1n[nH]c(N2CCC(N(CCc3ccc(Cl)cc3)Cc3ccccc3)CC2)n1 |
| 7.10 | Nc1nc(N2CCC(N(CCc3ccc(Cl)cc3)Cc3cccc(O)c3)CC2)n[nH]1 |
| 4.80 | CN(C1CCN(c2n[nH]c(N)n2)CC1)[C@H](COc1ccc(Cl)cc1)Cc1ccc(Cl)cc1 |
| 5.62 | Nc1nc(N2CCC(N3Cc4cccnc4OC[C@@H]3Cc3ccc(Cl)cc3)CC2)n[nH]1 |
| 4.74 | Nc1nc(N2CCC(N3Cc4cnccc4OC[C@@H]3Cc3ccc(Cl)cc3)CC2)n[nH]1 |

Target: Voltage-gated inwardly rectifying potassium channel KCNH2 (Homo sapiens, UniProt Q12809)
Test: Displacement of Tracer Red from human ERG by fluorescence polarization assay

Sequence of Voltage-gated inwardly rectifying potassium channel KCNH2 (Q12809 whole entry): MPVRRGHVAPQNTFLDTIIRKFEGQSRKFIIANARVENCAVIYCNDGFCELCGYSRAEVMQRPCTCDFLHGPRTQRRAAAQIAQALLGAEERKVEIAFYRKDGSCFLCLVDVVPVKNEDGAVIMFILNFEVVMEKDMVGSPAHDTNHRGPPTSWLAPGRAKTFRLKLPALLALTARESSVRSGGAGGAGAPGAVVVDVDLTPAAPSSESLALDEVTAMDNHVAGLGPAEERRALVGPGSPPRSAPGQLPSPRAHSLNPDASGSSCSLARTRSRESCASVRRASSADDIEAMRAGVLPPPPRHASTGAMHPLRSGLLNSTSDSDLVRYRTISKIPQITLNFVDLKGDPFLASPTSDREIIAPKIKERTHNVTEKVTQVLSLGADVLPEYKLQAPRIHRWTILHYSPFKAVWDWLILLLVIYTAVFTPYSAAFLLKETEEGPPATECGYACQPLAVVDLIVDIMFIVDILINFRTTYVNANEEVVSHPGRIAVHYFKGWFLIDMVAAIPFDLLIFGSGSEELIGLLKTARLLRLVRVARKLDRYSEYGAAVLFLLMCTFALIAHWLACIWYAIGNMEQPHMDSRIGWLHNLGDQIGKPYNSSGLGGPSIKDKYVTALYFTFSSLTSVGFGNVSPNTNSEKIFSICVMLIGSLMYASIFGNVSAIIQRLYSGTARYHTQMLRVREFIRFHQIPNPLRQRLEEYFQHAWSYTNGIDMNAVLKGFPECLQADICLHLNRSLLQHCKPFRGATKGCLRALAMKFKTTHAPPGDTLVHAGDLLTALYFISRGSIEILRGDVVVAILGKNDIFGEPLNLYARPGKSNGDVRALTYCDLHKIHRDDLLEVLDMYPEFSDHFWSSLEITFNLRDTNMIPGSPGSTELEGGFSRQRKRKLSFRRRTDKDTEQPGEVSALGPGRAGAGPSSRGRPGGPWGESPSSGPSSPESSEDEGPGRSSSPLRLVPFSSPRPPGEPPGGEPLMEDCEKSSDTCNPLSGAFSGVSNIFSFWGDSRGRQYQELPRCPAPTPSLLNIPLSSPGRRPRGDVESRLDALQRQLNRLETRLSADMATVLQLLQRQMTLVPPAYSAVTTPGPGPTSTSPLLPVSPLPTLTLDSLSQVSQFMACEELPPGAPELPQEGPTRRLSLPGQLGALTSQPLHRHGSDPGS

| SMILES | pIC50 |
| --- | --- |
| Nc1nnc(N2CCC(N3Cc4cc(Cl)cc(Cl)c4OC[C@@H]3Cc3ccc(Cl)cc3)CC2)[nH]1 | 5.22 |
| Nc1nc(N2CCC(N(CCc3ccc(Cl)cc3)Cc3cccc(O)c3)CC2)n[nH]1 | 6.82 |
| N#Cc1ccc2c(c1)CN(C1CCN(c3n[nH]c(N)n3)CC1)[C@@H](Cc1ccc(Cl)cc1)CO2 | 4.64 |
| Nc1nnc(N2CCC(N3Cc4ccncc4OC[C@@H]3Cc3ccc(Cl)cc3)CC2)[nH]1 | 4.30 |
| CN1C[C@H](Cc2ccc(Cl)cc2)N(C2CCN(c3nnc(N)[nH]3)CC2)Cc2cc(Cl)ccc21 | 6.10 |
| Nc1nc(N2CCC(N(Cc3ccccc3)[C@H](CO)Cc3ccc(Cl)cc3)CC2)n[nH]1 | 5.54 |
| Nc1nc(N2CCC(N3Cc4cccnc4OC[C@@H]3Cc3ccc(Cl)cc3)CC2)n[nH]1 | < 4.30 |
| Nc1nc(N2CCC(N3Cc4cnccc4OC[C@@H]3Cc3ccc(Cl)cc3)CC2)n[nH]1 | 4.77 |

Target: Acidic mammalian chitinase (Homo sapiens, UniProt Q9BZP6)
Test: Inhibition of full length recombinant C-terminal His-tagged human acidic mammalian chitinase expressed in CHOK1 cells assessed as reduction in chitinolytic activity using 4-methylumbelliferyl-beta-D-N,N-diacetylchitobioside hydrate as substrate incubated for 60 mins under shaking condition by microplate fluorometry analysis
Design: species or system CHO-K1

Sequence of Acidic mammalian chitinase (Q9BZP6 whole entry): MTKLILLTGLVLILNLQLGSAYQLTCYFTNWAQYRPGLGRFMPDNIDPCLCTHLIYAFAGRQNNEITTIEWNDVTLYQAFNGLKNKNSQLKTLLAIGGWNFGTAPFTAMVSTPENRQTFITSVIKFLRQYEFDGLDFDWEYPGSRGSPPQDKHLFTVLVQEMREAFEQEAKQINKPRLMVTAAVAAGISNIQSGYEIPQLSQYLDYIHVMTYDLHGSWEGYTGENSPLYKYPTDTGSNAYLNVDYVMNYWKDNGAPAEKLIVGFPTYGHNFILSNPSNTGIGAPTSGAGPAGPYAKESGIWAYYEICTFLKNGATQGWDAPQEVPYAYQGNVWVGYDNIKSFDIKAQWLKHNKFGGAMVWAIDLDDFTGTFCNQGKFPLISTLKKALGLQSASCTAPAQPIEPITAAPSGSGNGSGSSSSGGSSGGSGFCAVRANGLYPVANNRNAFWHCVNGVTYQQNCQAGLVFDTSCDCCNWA

| SMILES | pIC50 |
| --- | --- |
| Nc1nnc(N2CCC(N3Cc4cc(F)ccc4OC[C@@H]3Cc3ccc(Cl)cc3)CC2)[nH]1 | 8.15 |
| N#Cc1ccc2c(c1)CN(C1CCN(c3n[nH]c(N)n3)CC1)[C@@H](Cc1ccc(Cl)cc1)CO2 | 7.31 |
| C=C1COC[C@H](Cc2ccc(Cl)cc2)N(C2CCN(c3nnc(N)[nH]3)CC2)C1 | 7.92 |
| Nc1nnc(N2CCC(N3Cc4ccncc4OC[C@@H]3Cc3ccc(Cl)cc3)CC2)[nH]1 | 7.26 |
| CN1C[C@H](Cc2ccc(Cl)cc2)N(C2CCN(c3nnc(N)[nH]3)CC2)Cc2cc(Cl)ccc21 | 9.15 |
| Nc1nc(N2CCC(N(Cc3ccccc3)[C@H](CO)Cc3ccc(Cl)cc3)CC2)n[nH]1 | 6.61 |

Results, then the compound that gave them:

| pIC50 | SMILES |
| --- | --- |
| 7.17 | Nc1nnc(N2CCC(N3Cc4cc(Cl)cc(Cl)c4OC[C@@H]3Cc3ccc(Cl)cc3)CC2)[nH]1 |
| 8.70 | Nc1nc(N2CCC(N(CCc3ccc(Cl)cc3)Cc3cccc(O)c3)CC2)n[nH]1 |
| 6.24 | CN(C1CCN(c2n[nH]c(N)n2)CC1)[C@H](COc1ccc(Cl)cc1)Cc1ccc(Cl)cc1 |
| 7.52 | Nc1nc(N2CCC(N3Cc4cccnc4OC[C@@H]3Cc3ccc(Cl)cc3)CC2)n[nH]1 |
| 6.54 | Nc1nc(N2CCC(N3Cc4cnccc4OC[C@@H]3Cc3ccc(Cl)cc3)CC2)n[nH]1 |
